SMILES strings stand for the structures. “And” between values parts separate entries of the source, which are not always exact repeats. Identical values can stand only once. Inconclusive results and toxic doses are left out.

This experiment has as its system BDF1 mice, P388 leukemia ip, median survival T/C. Briefly: NCI In Vivo Anticancer Drug Screen. Data for tumor model P388 Leukemia (intraperitoneal) in B6D2F1 (BDF1) mice. To be noted: endpoint: median survival time, higher = longer survival. The procedure, abridged:
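Reported as T/C, where T is the survival measurement in dosed animals and C the same measurement in vehicle controls.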

The mark [1] stands for this setting: dose: 25.0 mg/kg/injection, schedule: Q01DX009 (ip), vehicle: saline.
[2] abbreviates: dose: 50.0 mg/kg/injection, schedule: Q01DX009 (ip), vehicle: saline.
Setting [3] is: dose: 100.0 mg/kg/injection, schedule: Q01DX009 (ip), vehicle: saline.
Setting [4] is: dose: 25.0 mg/kg/injection, schedule: Q01DX009 (ip), vehicle: Klucel (hydroxypropylcellulose) (HPC).
Setting [5] is: dose: 100.0 mg/kg/injection, schedule: Q04DX003 (ip), vehicle: saline sonified.
Where [6] appears, read: dose: 50.0 mg/kg/injection, schedule: Q01DX009 (ip), vehicle: saline with Tween-80.
Setting [7] is: dose: 100.0 mg/kg/injection, schedule: Q01DX009 (ip), vehicle: saline with Tween-80.
[8] abbreviates: dose: 100.0 mg/kg/injection, schedule: Q04DX003 (ip), vehicle: saline with Tween-80.
Setting [9] is: dose: 200.0 mg/kg/injection, schedule: Q04DX003 (ip), vehicle: saline with Tween-80.
Where [10] appears, read: dose: 200.0 mg/kg/injection, schedule: Q01DX009 (ip), vehicle: saline with Tween-80.

Regarding `O=C1NC(c2cccs2)(c2cccs2)C(=O)N1Cl`, the T/C is, setting by setting: (dose: 6.25 mg/kg/injection, schedule: Q01DX009 (ip), vehicle: water) 94 % of control; (dose: 6.25 mg/kg/injection, schedule: Q04DX003 (ip), vehicle: water) 97 % of control; (dose: 12.5 mg/kg/injection, schedule: Q01DX009 (ip), vehicle: water) 104 % of control; (dose: 12.5 mg/kg/injection, schedule: Q04DX003 (ip), vehicle: water) 97 % of control; (dose: 25.0 mg/kg/injection, schedule: Q01DX009 (ip), vehicle: water) 103 % of control; (dose: 25.0 mg/kg/injection, schedule: Q04DX003 (ip), vehicle: water) 97 % of control. Further, the T/C is 116 % of control (dose: 50.0 mg/kg/injection, schedule: Q01DX009 (ip), vehicle: water); 95 % of control (dose: 50.0 mg/kg/injection, schedule: Q04DX003 (ip), vehicle: water); 95 % of control (dose: 100.0 mg/kg/injection, schedule: Q04DX003 (ip), vehicle: water); 88 % of control (dose: 200.0 mg/kg/injection, schedule: Q04DX003 (ip), vehicle: water).
`CCCCNC(C)(C)CO`: the T/C (dose: 3.12 mg/kg/injection, schedule: Q01DX009 (ip), vehicle: saline) is 100 % of control; the T/C (dose: 6.25 mg/kg/injection, schedule: Q01DX009 (ip), vehicle: saline) was 99 % of control; the T/C (dose: 12.5 mg/kg/injection, schedule: Q01DX009 (ip), vehicle: saline) is 99 % of control; the T/C (dose: 12.5 mg/kg/injection, schedule: Q04DX003 (ip), vehicle: saline) is 102 % of control; the T/C under setting [1] is 99 % of control; the T/C (dose: 25.0 mg/kg/injection, schedule: Q04DX003 (ip), vehicle: saline) is 100 % of control. The T/C was 86 % of control under setting [2]; 102 % of control (dose: 50.0 mg/kg/injection, schedule: Q04DX003 (ip), vehicle: saline); 103 % of control under setting [3]; 95 % of control and 100 % of control (dose: 100.0 mg/kg/injection, schedule: Q04DX003 (ip), vehicle: saline).
With `CCOc1ccc2nc(N)sc2c1`, the T/C runs as follows: under setting [4], 118 % of control; (dose: 50.0 mg/kg/injection, schedule: Q01DX009 (ip), vehicle: Klucel (hydroxypropylcellulose) (HPC)) 109 % of control; (dose: 100.0 mg/kg/injection, schedule: Q01DX001 (ip), vehicle: Klucel (hydroxypropylcellulose) (HPC)) 86 % of control; (dose: 100.0 mg/kg/injection, schedule: Q01DX009 (ip), vehicle: Klucel (hydroxypropylcellulose) (HPC)) 104 % of control and 109 % of control; (dose: 100.0 mg/kg/injection, schedule: Q04DX003 (ip), vehicle: Klucel (hydroxypropylcellulose) (HPC)) 104 % of control; (dose: 200.0 mg/kg/injection, schedule: Q01DX001 (ip), vehicle: Klucel (hydroxypropylcellulose) (HPC)) 100 % of control. The T/C (dose: 200.0 mg/kg/injection, schedule: Q04DX003 (ip), vehicle: Klucel (hydroxypropylcellulose) (HPC)) was 95 % of control and the T/C (dose: 400.0 mg/kg/injection, schedule: Q04DX003 (ip), vehicle: Klucel (hydroxypropylcellulose) (HPC)) is 91 % of control.
`O=C(Nc1ccccc1C(=O)c1ccccn1)c1ccccc1`: the T/C is 90 % of control under setting [5]; 90 % of control (dose: 200.0 mg/kg/injection, schedule: Q04DX003 (ip), vehicle: saline sonified); 90 % of control (dose: 400.0 mg/kg/injection, schedule: Q04DX003 (ip), vehicle: saline sonified).
Consider `COc1cc([C@@H]2c3cc4c(cc3C[C@H]3COC(=O)[C@@H]32)OCO4)cc(OC)c1OC`, for which the T/C was 109 % of control (dose: 1.25 mg/kg/injection, schedule: Q01DX010 (ip), vehicle: saline); 105 % of control (dose: 2.5 mg/kg/injection, schedule: Q01DX001 (ip), vehicle: other); 118 % of control (dose: 2.5 mg/kg/injection, schedule: Q01DX010 (ip), vehicle: saline); 115 % of control (dose: 5.0 mg/kg/injection, schedule: Q01DX001 (ip), vehicle: other); 154 % of control (dose: 10.0 mg/kg/injection, schedule: Q01DX010 (ip), vehicle: other); 95 % of control (dose: 20.0 mg/kg/injection, schedule: Q01DX010 (ip), vehicle: other).
Consider `O=C(O)/C=C/c1c(Cl)cccc1Cl`, for which the T/C is, setting by setting: under setting [6], 106 % of control; under setting [7], 113 % of control.
For `CS/C(N)=N\S(=O)(=O)c1ccc(NC(C)=O)cc1`, the T/C runs as follows: under setting [8], 95 % of control; under setting [9], 119 % of control; (dose: 400.0 mg/kg/injection, schedule: Q04DX003 (ip), vehicle: saline with Tween-80) 100 % of control.
On to `COc1ccc(C2=C(c3ccccc3)C(c3ccccc3)=C(c3ccc(OC)cc3)C2=O)cc1`, for which the T/C is, setting by setting: under setting [6], 103 % of control; under setting [7], 89 % of control; under setting [10], 99 % of control; (dose: 400.0 mg/kg/injection, schedule: Q01DX009 (ip), vehicle: saline with Tween-80) 94 % of control.
Regarding `CS(=O)CC(O)(c1cccs1)C1CC1` (centres undefined), the T/C is 103 % of control under setting [6], 117 % of control under setting [7] and 98 % of control under setting [10].
On to `S=c1nc[nH]c2c1ncn2CN1CCOCC1`, for which, under setting [4], the T/C is 110 % of control.
With `O=C(Nc1ccc(Cc2ccc(NC(=O)Nc3nc4ccccc4s3)cc2)cc1)Nc1nc2ccccc2s1`, the T/C under setting [6] was 94 % of control, the T/C under setting [7] is 89 % of control and the T/C under setting [10] was 100 % of control.
`Cc1ccc(S(=O)(=O)N(C)c2ccc(C(=O)O)cc2F)cc1`: the T/C was 100 % of control (dose: 75.0 mg/kg/injection, schedule: Q04DX003 (ip), vehicle: saline); 104 % of control (dose: 150.0 mg/kg/injection, schedule: Q04DX003 (ip), vehicle: saline); 100 % of control (dose: 300.0 mg/kg/injection, schedule: Q04DX003 (ip), vehicle: saline).
As to `Cc1ncc([N+](=O)[O-])n1CCSC(Cl)(Cl)Cl`, the T/C is 101 % of control (dose: 200.0 mg/kg/injection, schedule: Q04DX003 (ip), vehicle: saline) and 111 % of control (dose: 400.0 mg/kg/injection, schedule: Q04DX003 (ip), vehicle: saline).
With `c1cnc2sccc2c1`, the T/C reads like this: under setting [8], 100 % of control; under setting [9], 109 % of control.
With `CC1(C)N=C(N)N=C(N)N1c1ccc(OCCNC(=O)Nc2ccc(S(=O)(=O)F)cc2)c(Cl)c1`, the T/C reads like this: (dose: 4.8 mg/kg/injection, schedule: Q01DX009 (ip), vehicle: saline) 118 % of control; under setting [1], 175 % of control; under setting [2], 180 % of control; (dose: 66.0 mg/kg/injection, schedule: Q01DX009 (ip), vehicle: saline) 168 % of control; (dose: 66.0 mg/kg/injection, schedule: Q04DX003 (ip), vehicle: saline) 123 % of control; under setting [3], 159 % of control and 200 % of control.
As for `CC(=O)O/N=C(/C)c1ccccc1`, the T/C (dose: 25.0 mg/kg/injection, schedule: Q04DX003 (ip), vehicle: saline sonified) is 100 % of control; the T/C (dose: 50.0 mg/kg/injection, schedule: Q04DX003 (ip), vehicle: saline sonified) is 100 % of control; the T/C under setting [5] is 100 % of control.

(Values after PubChem BioAssay AID328 (DTP/NCI, 2004).)
